Assays:
Type in all cases: cell-based
[1] = Cell cytotoxicity 50 assay (CC50), HEK cells; conditions: human
Method: (§1) Cell Cytotoxicity 50 Assay Protocol (CC50) Into a deep well block (DWB), the media for the appropriate cell line (450 μL/well) was added into wells 1-10. Into DWB well 2, 10 mM of drug solution (13.5 μL) was added, followed by an additional volume of the medium (225 μL). The well was pipetted up/down four times. A portion (225 μL) was transferred to well 3, and this process was repeated up to well 10. Using a multichannel pipet, a smaller portion (50 μL/well) was removed from all wells in the DWB and then dispensed on top of the cells in each corresponding row. After adding the drug, the plate was incubated at 37° C. for 72 h. Using a multi-channel pipet, pre-warmed cell titer glo reagent (Promega) (100 μL) was added into every well. After 5 minutes, the total luminescence was measured with a luminometer. CC50 was determined with GraphPad prism template.

[2] = Cell cytotoxicity 50 assay (CC50), MB200 cells, cell titer glo; conditions: human
Method: as §1, with “(CC50) MB200 cells were grown until 80% confluent in F10 media supplemented with rhFGF basic (10 ng/ml), 15% fetal bovine serum, 1% penicillin streptomycin, 1% amphotericin B, and 1 μM dexamethasone. Adherent MB200 cells growing on 10 cm plate were then trypsinized with 1 ml of trypsin. Once the cells detached from the plate, F10 media (10 mL) was added, and the cells were strained through a 70 μm cell strainer. The cells were counted using a mixture of 10 μL cell suspension with 10 μL of trypan blue. Once the total number of cells were counted, a dilution of 200 k/mL was prepared, and the cells were seeded with 10 k cells/well in a 96-well plate in triplicate, making sure to avoid seeding cells in the edges of the plate to avoid edge effects. Using a multichannel pipet, the 200 k/mL cell dilution (50 μL/well) was added into wells B2-B11, C2-C11, and D2-D11 in triplicate.” for “(CC50)”

[3] = test system: MBD3L2 RNA; experiment: RNA isolation and qPCR to determine MBD3L2 RNA levels in FSHD cells; conditions: 48 hrs
Method: Protocol for RNA Isolation and qPCR to Determine MBD3L2 RNA Levels The protocol describes the process of isolating RNA from cultured cells, converting the RNA to complementary DNA (cDNA), and measuring target gene expression using a quantitative polymerase chain reaction (qPCR). The seed FSHD cells were dispensed into a six-well dish. One day after seeding, the DUX4 inhibitor (11 μM or 3.6 μM/well) was added to the cells. After another 48 hrs, the old media was removed from the cells. The cells were washed with 2 mL of warm phosphate buffered saline (PBS). The PBS was aspirated, and the cells were lysed in each well with 350 μL of RLT buffer+3.5 μL of beta-mercaptoethanol (BME). The lysates were added to fresh, RNAse-free, labeled Eppendorf tubes. The cells were then physically disrupted for […] at level 4 of the bead disrupter to ensure the release of the RNA. The RNA was collected according to standard procedures (i.e., Qiagen kit instructions) as discussed below. The RNA concentrations were standardized to […]. In a PCR tube, RNA (2 μg) in a new Eppendorf tube was diluted with RNase-free water to a 9.5 μL final volume of […] RNA. DNase was used to remove any DNA contamination. A DNase Master Mix was prepared from 1.5 μL/reaction DNase solution (1 unit/μL, Promega), 3 μL/reaction 5× RT buffer (i.e., 250 mM Tris-HCl (pH 8.3), 375 mM KCl, 15 mM MgCl2, and 500 μl 0.1 M DTT; Promega MMLV), and 1 μL/reaction RNase inhibitor solution (RNasin, 40 units/μL, Promega). The DNase Master Mix was added to the standardized RNA samples (5.5 μL/sample). The samples were mixed by agitation and briefly spun down by centrifuge. The samples were heated to 37° C. for 60 min, 80° C. for 5 min, and then cooled to 4° C. The samples were stored on ice until the addition of the next reagents. An RT Reaction Master Mix was prepared from 5 μL/reaction 5× RT buffer, 2 μL/reaction dNTP solution (2.5 mM in each nucleotide), 1 μL/reaction RNase inhibitor solution (RNasin, 40 units/μL, Promega), 1.6 μL/reaction M-MLV reverse transcriptase (200 units/μL, Promega), and 13.4 μL/reaction deionized, RNase-free water. The RT Reaction Master Mix was cooled on ice until use. A 50 μM solution of Random Primer 6 random hexanucleotides (2 μL) was added to each sample. The samples were mixed by agitation and briefly spun down by centrifuge. The samples were heated to 70° C. for 5 min and then cooled to 4° C. The RT Reaction Master Mix (23 μL) was added to each sample. The samples were mixed by agitation and briefly spun down by centrifuge. To convert the RNA to cDNA, the samples were heated to 42° C. for 60 min, 95° C. for 5 min, and then cooled to 4° C. The cDNA product mixture was diluted 5:1 with deionized water (40 μL+160 μL). The samples were run in triplicate, with a methyl-CpG-binding protein 3-like 2 (MBD3L2) target primer and a eukaryotic translation elongation factor 1-alpha (EEF1A) control primer. An qPCR Master Mix was prepared for each primer and stored on ice (4° C.) until use. The qPCR Master Mix included 10 μL/reaction SYBR Green Mix (2×) (ThermoFisher), 1 μL/reaction of the primer mix (i.e., the MBD3L2 PCR Primer mix or the EEF1A Primer mix), and 4 μL/reaction deionized, RNase-free water. To set up the qPCR plate, 15 μL of the appropriate qPCR Master Mix was added to the appropriate wells for each target/primer. After all the targets/primers have been added to the wells, 5 μL of the sample was added to the corresponding wells so that each well is 20 μL total. The plate was covered with a clear sheet. An qPCR run was set up (QuantStudio 5) with the following cycle: […]

**Q.** Which results are given for `CC(=O)NCCCC(=O)N(C)c1ccc(-c2nc3ccccc3s2)cc1` [Compound 142]?
**A.** CC50 at 72 h [1]: > 10 µM; CC50 at 72 h [2]: > 10 µM; qPCR MBD3L2 Inhib at 11 µM [3]: YES

**Q.** For `CC(=O)NCCCC(=O)Nc1cnc(-c2nc3ccccc3s2)nc1` [Compound 59], which CC50 at 72 h [1] is on record?
**A.** Its CC50 at 72 h is greater than 10 µM.

**Q.** What about the CC50 at 72 h [2] of the same compound?
**A.** The CC50 at 72 h was greater than 10 µM.

**Q.** And the “qPCR MBD3L2 Inhib at 11 µM” value [3]?
**A.** The value was “YES”.

**Q.** With `O=C(CCCc1cccnc1)Nc1ccc(-c2nc3ccccc3s2)o1` [Compound 75] as the compound, how does the CC50 at 72 h [1] read?
**A.** Its CC50 at 72 h is greater than 10 µM.

**Q.** What about the CC50 at 72 h [2] of the same compound?
**A.** Its CC50 at 72 h is greater than 10 µM.

**Q.** And the “qPCR MBD3L2 Inhib at 11 µM” value [3]?
**A.** Its value is “YES”.

**Q.** Which CC50 at 72 h [1] does the source give for `O=C(CCc1cnn[nH]1)Nc1ccc(-c2nc3ccccc3s2)cc1` [Compound 40] here?
**A.** The CC50 at 72 h was greater than 10 µM.

**Q.** What about the CC50 at 72 h [2] of the same compound?
**A.** The CC50 at 72 h was greater than 10 µM.

**Q.** What about the “qPCR MBD3L2 Inhib at 11 µM” value [3] of the same compound?
**A.** The value was “YES”.

**Q.** With `O=C(CCCN1C(=O)CCC1=O)Nc1ccc(-c2nc3ccccc3s2)cc1` [Compound 41] as the compound, how does the CC50 at 72 h [1] read?
**A.** Its CC50 at 72 h is greater than 10 µM.

**Q.** What about the CC50 at 72 h [2] of the same compound?
**A.** The CC50 at 72 h was greater than 10 µM.

**Q.** And the “qPCR MBD3L2 Inhib at 11 µM” value [3]?
**A.** The value was “YES”.

**Q.** With `CC(=O)NC/C=C/C(=O)Nc1ccc(-c2nc3ccccc3s2)cc1` [Compound 77] as the compound, how does the CC50 at 72 h [1] read?
**A.** The CC50 at 72 h was greater than 10 µM.

**Q.** And the CC50 at 72 h [2]?
**A.** Its CC50 at 72 h is greater than 10 µM.

**Q.** And the “qPCR MBD3L2 Inhib at 11 µM” value [3]?
**A.** Its value is “YES”.

**Q.** Which results are given for `CC(=O)NCCC(=O)Nc1ccc(-c2nc3cc(C)ccc3s2)cc1` [Compound 53]?
**A.** CC50 at 72 h [1]: > 10 µM; CC50 at 72 h [2]: > 10 µM; qPCR MBD3L2 Inhib at 11 µM [3]: YES

**Q.** What does the source list for `CC(=O)NCCCC(=O)Nc1ccc(C(C)(C)c2nc3ccccc3s2)cc1` [Compound 87]?
**A.** CC50 at 72 h [1]: > 10 µM; CC50 at 72 h [2]: > 10 µM; qPCR MBD3L2 Inhib at 11 µM [3]: YES

**Q.** What does the source list for `O=C(CCCN1C(=O)CCC1=O)Nc1ccc(-c2nc3c(s2)CCCC3)cc1` [Compound 88]?
**A.** CC50 at 72 h [1]: > 10 µM; CC50 at 72 h [2]: > 10 µM; qPCR MBD3L2 Inhib at 11 µM [3]: YES

**Q.** With `O=C(CCCCc1cccnc1)Nc1ccc(-c2nc3ccccc3s2)cc1` [Compound 140] as the compound, how does the CC50 at 72 h [1] read?
**A.** Its CC50 at 72 h is greater than 10 µM.

**Q.** And the CC50 at 72 h [2]?
**A.** Its CC50 at 72 h is greater than 10 µM.

**Q.** What about the “qPCR MBD3L2 Inhib at 11 µM” value [3] of the same compound?
**A.** Its value is “YES”.

**Q.** Which CC50 at 72 h [1] does the source give for `O=C(CCc1cccnc1)Nc1ccc(-c2nc3ccccc3s2)cc1` [Compound 13] here?
**A.** The CC50 at 72 h was greater than 10 µM.

**Q.** And the CC50 at 72 h [2]?
**A.** Its CC50 at 72 h is greater than 10 µM.

**Q.** And the “qPCR MBD3L2 Inhib at 11 µM” value [3]?
**A.** Its value is “YES”.

**Q.** Which results are given for `O=C(CCCc1cnco1)Nc1ccc(-c2nc3cc(F)ccc3s2)cc1` [Compound 64]?
**A.** CC50 at 72 h [1]: 1 to 10 µM; CC50 at 72 h [2]: > 10 µM; qPCR MBD3L2 Inhib at 11 µM [3]: YES

**Q.** With `O=C(CCc1cnco1)Nc1ccc(-c2nc3ccccc3s2)cc1` [Compound 33] as the compound, how does the CC50 at 72 h [1] read?
**A.** The CC50 at 72 h was greater than 10 µM.

**Q.** What about the CC50 at 72 h [2] of the same compound?
**A.** The CC50 at 72 h was greater than 10 µM.

**Q.** What about the “qPCR MBD3L2 Inhib at 11 µM” value [3] of the same compound?
**A.** Its value is “YES”.

**Q.** With `O=C(CCCc1cnco1)Nc1ccc(-c2nc3ccccc3s2)nc1` [Compound 81] as the compound, how does the CC50 at 72 h [1] read?
**A.** Its CC50 at 72 h is greater than 10 µM.

**Q.** And the CC50 at 72 h [2]?
**A.** Its CC50 at 72 h is greater than 10 µM.

**Q.** And the “qPCR MBD3L2 Inhib at 11 µM” value [3]?
**A.** Its value is “YES”.

**Q.** Which CC50 at 72 h [1] does the source give for `O=C(CCCN1C(=O)CCC1=O)NC1CC=C(c2nc3ccccc3s2)CC1` (stereo not drawn) [Compound 46] here?
**A.** The CC50 at 72 h was greater than 10 µM.

**Q.** What about the CC50 at 72 h [2] of the same compound?
**A.** Its CC50 at 72 h is greater than 10 µM.

**Q.** What about the “qPCR MBD3L2 Inhib at 11 µM” value [3] of the same compound?
**A.** Its value is “YES”.

**Q.** Which results are given for `O=C(Nc1ccc(-c2nc3ccccc3s2)cc1)C1CCC(N2C(=O)CCC2=O)C1` (stereo not drawn) [Compound 94]?
**A.** CC50 at 72 h [1]: > 10 µM; CC50 at 72 h [2]: > 10 µM; qPCR MBD3L2 Inhib at 11 µM [3]: YES
